Experimental findings from ChEMBL document CHEMBL1201862, “PubChem BioAssay data set” (2004) are described below.

Molecules are shown by their SMILES.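 The compound was tested at five concentrations on cells cultured in 96-well plates, with a 48-hour exposure period. GI50 = concentration required for 50% inhibition of growth.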 Activity calls are given as the source filed them. Rule as the data show it: active = GI50 up to about 1.1 µM and inactive = higher.

Holding throughout (test): NCI tumour cell line growth inhibition, 48 h
The subject of test [1] is UO-31.
Test [2] deals with A549.
The test system of test [3] is NCI-H460.
Test [4] concerns U-251.
Test [5] concerns NCI-H226.
The test system of test [6] is SNB-75.
For test [7], the system named is K562.
For test [8], the system named is SN12C.
Test [9] deals with OVCAR-8.
The test system of test [10] is SW-620.
The subject of test [11] is MOLT-4.
Test [12] relates to SK-MEL-28.
Test [13] has as its system CAKI-1.
Test [14] deals with UACC-257.
For test [15], the system named is NCI-H23.
Test [16] concerns DMS-273.
Test [17] has as its system HT-29.
The subject of test [18] is OVCAR-5.
The test system of test [19] is NCI-H522.
Test [20] concerns SF-295.

In the case of `NS(=O)(=O)C1CCCCC1C(=O)NNC(=O)C(=O)Nc1nnc(S)[nH]1` (stereo not given), the GI50 in test [1], in test [2], in test [3], in test [4], in test [5] and in test [6] was > 100 µM (inactive) in each case. In addition, the GI50 in test [7], in test [8], in test [9], in test [10], in test [11] and in test [12] was > 100 µM (inactive) each time. Besides, the GI50 in test [13], in test [14], in test [15], in test [16], in [17] and in test [18] was > 100 µM (inactive) in each case. Besides, the GI50 in test [19] and in test [20] was > 100 µM (inactive) throughout.

Regarding `O=C1CNC(=O)N1` [HYDANTOIN], the GI50 is > 1120 µM (inactive) in test [1]; > 1120 µM (inactive) in test [2]; > 1120 µM (inactive) in test [3]; > 1120 µM (inactive) in test [4]; 11.2 µM (inactive) in [5]; 177 µM (inactive) in [6]. The GI50 in test [7] was 706 µM (inactive); in test [8], > 1120 µM (inactive); in test [9], > 1120 µM (inactive); in test [10], > 1120 µM (inactive); in test [11], > 1120 µM (inactive); in test [12] it was > 1120 µM (inactive). Also, the GI50 in test [13], in test [14], in test [15], in test [16], in [17] and in [18] was > 1120 µM (inactive) each time. Besides, the GI50 in [19] and in test [20] was > 1120 µM (inactive) in each case.

Regarding `CC(=O)CC(=O)CCC(=O)O` [SUCCINYLACETONE], the GI50 in test [1] was > 100 µM (inactive); in [2], > 100 µM (inactive); in test [3], > 100 µM (inactive); in test [4], > 100 µM (inactive); in test [5] it was > 100 µM (inactive); in [6] it was < 0.01 µM (active). The GI50 in test [7] is > 100 µM (inactive); in [8], > 100 µM (inactive); in test [9], > 100 µM (inactive); in test [10] it was > 100 µM (inactive); in test [11], 57.3 µM (inactive); in test [12] it was > 100 µM (inactive). Further, the GI50 in test [13], in test [14], in test [15], in test [16], in test [17] and in [18] was > 100 µM (inactive) throughout. Moreover, the GI50 in test [19] and in test [20] was > 100 µM (inactive) in each case.
